Experimental data from patent US20030119061A1, “Structure-based drug design methods for identifying D-Ala-D-Ala ligase inhibitors as antibacterial drugs” (priority 2001, published 2003).

How the values were obtained:
[1] = molecular target: T1, D-Ala-D-Ala ligase (Escherichia coli, UniProt P07862); test: Stopped flow fluorescence quenching studies of nucleotide binding to ligase; conditions: for Kd: partially closed complex, product of Kd1 and Kd2, read-out: final (overall) Kd
Description: We have discovered a significant fluorescence quenching upon binding of ATP and ADP, which we have exploited to examine mechanistic features of ligase. We have carried out stopped flow studies to look at the binding of ATP and ADP to ligase. These studies were carried out at 4° C. We observe a single exponential fluorescent quenching which is completed in <20 ms. […] This confirms our previous hypothesis about ligase, namely that the enzyme undergoes conformational changes that are an important and integral part of its enzymatic mechanism. This enzyme appears to fall into the category of “induced fit”.
The enzyme undergoes a conformational change to form the partially closed complex EA*. […] For ADP the conformational change increases the affinity of the nucleotide seven-fold for the partially closed complex, with respect to the initial collision complex, leading to an overall Kd of 50 μM. […] To dissociate the ligand, the enzyme has to relax back to the open form. […] In some cases, it can be advantageous for the inhibitor to trigger a further conformational change, perhaps the closure of the omega loop of domain D, leading to a fully closed form of the enzyme.
Stopped flow studies have added to the understanding of the mechanism by which ligase binds ligands, and have confirmed previous suspicions about “induced fit” mechanism. Determining the affinity of high affinity inhibitors (low nM) will be difficult by equilibrium binding methods or steady state enzyme kinetics. Stopped flow studies may well be the only way that the affinity of high affinity inhibitors can be determined with any degree of confidence. The studies can be carried out, for example, using the methods described by Eccleston, J. F. “Stopped-flow Spectrophotometric Techniques” in Spectrophotometry and Spectrofluorimetry a Practical Approach, Ed. D. A. Harris & C. L. Bashford, IRL Press, 1987, p. 137-164.

[2] = molecular target: D-Ala-D-Ala ligase omega loop (D domain) (Escherichia coli, UniProt P07862); test: Proteolysis (trypsin) assay of omega loop closure; type: biochemical
From the text: (§1) We have developed an in vitro assay to look at the closure of the omega loop (i.e., the D domain). The closure of the omega loop is probed by proteolysis.

[3] = molecular target: T1, D-Ala-D-Ala ligase; test: Affinity for D-Ala-D-Ala ligase relative to ATP (method not given); type: binding; conditions: given in brackets after ATP
From the text: as §1

[4] = molecular target: T1, D-Ala-D-Ala ligase; test: D-Ala-D-Ala ligase IC50 determination (PK/LDH coupled assay); type: biochemical; conditions: control in 1× core buffer; read-out: value (IC50 or Ki) for D-Ala-D-Ala ligase inhibition
From the text: Inhibition of D-Ala-D-Ala ligase can be assayed for using the pyruvate kinase/lactate dehydrogenase (PK/LDH) assay described in Example 2. In the bacterial cell wall synthesis process, the ligase catalyzes the conversion of ATP to ADP concurrent with the ligation of two D-alanine residues. PK then regenerates ATP from the ADP thus created simultaneously with the conversion of phosphopyruvate to pyruvate. LDH catalyzes the reduction of pyruvate to lactate by converting NADH to NAD^+. By monitoring the production rate of NAD^+, D-Ala-D-Ala ligase activity can be ascertained.
The purine derivatives of Example 1 were dissolved in dimethylsulfoxide (DMSO) at a concentration of 100 mM on the day of screening, using a vortex mixer if necessary for dissolution. The solutions were kept at room temperature until screening was completed.
A 10 mM NADH (Sigma) stock solution was prepared fresh on the day of screening by dissolving 32 μmol NADH in 3.2 ml double-distilled water. The NADH solution was kept on ice. […]
At t=18-19 minutes, the substrate solution was taken from 25° C. to a Spectromax® UV-vis spectrophotometer. At t=20 minutes, within a 30 second timeframe, 125 μl of substrate solution was added to each well of columns 1-4, and the absorbance at 340 nm was read. […]

[5] = together with a D-Ala site binding molecule (phosphinate, D-Ala-D-Ala or cycloserine)

Nc1ncnc2c1ncn2[C@@H]1O[C@H](COP(=O)(O)OP(=O)(O)O)[C@@H](O)[C@H]1O [ADP]
affinity for D-Ala-D-Ala ligase relative to ATP ([1]; ADP vs ATP): three | increase in affinity by the conformational change (partially closed vs initial collision complex) ([1]; stopped flow, 4° C.): seven | net dissociation rate constant (k−2) ([1]; stopped flow, 4° C.): 72 s⁻¹ | Kd ([1]; stopped flow, 4° C.): 50 µM | omega loop closure (protection from trypsin proteolysis) [2, 5]: stabilize the omega loop closure

Nc1ncnc2c1ncn2[C@@H]1O[C@H](COP(=O)(O)OP(=O)(O)NP(=O)(O)O)[C@@H](O)[C@H]1O [AMPPNP]
omega loop closure (protection from trypsin proteolysis) [2, 5]: does not support the omega loop closure

Nc1ncnc2c1ncn2[C@@H]1O[C@H](COP(=O)(O)OP(=O)(O)OP(=O)(O)O)[C@@H](O)[C@H]1O [ATP, adenosine triphosphate]
Kd [3]: 300 µM | increase in affinity by the conformational change (partially closed vs initial collision complex) ([1]; stopped flow, 4° C.): 3.2 fold | Kd ([1]; stopped flow, 4° C.): 157 µM | koff ([1]; stopped flow, 4° C., read-out: net dissociation rate constant (k−2)): 126 s⁻¹ | omega loop closure (protection from trypsin proteolysis) ([2]; nucleotide alone, no D-Ala site binding molecule): cannot close the omega loop | omega loop closure (protection from trypsin proteolysis) [2, 5]: stabilize the omega loop closure

Nc1ncnc2c1ncn2[C@@H]1O[C@H](COP(=O)(O)OP(=O)(O)OP(O)(O)=S)[C@@H](O)[C@H]1O [ATPgS]
omega loop closure (protection from trypsin proteolysis) [2, 5]: stabilize the omega loop closure

N[C@@H]1CON=C1O [Cycloserine, D-cycloserine]
IC50 [4]: ~150 µM
